# Measured values as given in ChEMBL document CHEMBL1201862, “PubChem BioAssay data set” (2004).
# Activity calls are given as the source filed them.
# Key:
# [1] = target: Matrix metalloproteinase-14 (Homo sapiens, UniProt P50281); experiment: Dose Response confirmation of uHTS hits for a small molecule inhibitors of MT1-MMP activation in a fluorescence assay set 2.; assay type: functional
# HeLa = experiment: HeLa cell cytotoxicity, dose response, cytotoxicity control, 24 h, cherry-picked samples (AID 504726); assay type: functional, cell-based; conditions: Homo sapiens;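 further: potency for cytotoxicity as loss of luminescence signal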
# [2] = HeLa cell cytotoxicity, dose response, cytotoxicity control for MgcRacGAP inhibitor project (AID 624300); assay type: functional
# [3] = target: T1, Rac GTPase-activating protein 1 (Homo sapiens, UniProt Q9H0H5); experiment: MgcRacGAP GTPase-activating activity inhibitors, confirmation, biochemical, ADP Hunter fluorescence, primary and confirmatory (AID 624330); assay type: functional
# T1 sequence (Q9H0H5 whole entry): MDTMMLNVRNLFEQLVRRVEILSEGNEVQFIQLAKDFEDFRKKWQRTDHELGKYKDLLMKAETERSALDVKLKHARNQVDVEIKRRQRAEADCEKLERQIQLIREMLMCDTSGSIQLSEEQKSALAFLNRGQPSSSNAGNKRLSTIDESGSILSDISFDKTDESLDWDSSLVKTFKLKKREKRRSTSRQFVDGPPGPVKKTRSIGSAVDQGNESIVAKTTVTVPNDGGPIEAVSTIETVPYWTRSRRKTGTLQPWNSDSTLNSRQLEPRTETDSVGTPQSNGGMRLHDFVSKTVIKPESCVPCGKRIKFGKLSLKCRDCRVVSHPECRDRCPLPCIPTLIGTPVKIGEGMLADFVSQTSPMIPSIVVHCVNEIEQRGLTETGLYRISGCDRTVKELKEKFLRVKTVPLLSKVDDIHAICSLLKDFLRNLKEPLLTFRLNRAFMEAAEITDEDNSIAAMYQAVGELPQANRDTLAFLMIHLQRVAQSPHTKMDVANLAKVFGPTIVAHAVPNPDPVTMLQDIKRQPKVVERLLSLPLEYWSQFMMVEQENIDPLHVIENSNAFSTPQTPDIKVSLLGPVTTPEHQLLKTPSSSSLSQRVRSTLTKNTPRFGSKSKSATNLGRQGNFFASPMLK
# ORF 73 = target: T2, ORF 73 (Human herpesvirus 8, UniProt O40947); experiment: inhibitors of C-LANA binding to LBS DNA, dose response, biochemical, fluorescence polarization, cherry-picked samples (AID 504725); parameters: species or system Human gammaherpesvirus 8;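 further: fluorescence polarization of a labeled DNA duplex reporting LANA DNA binding; potency is for inhibitors that block LANA binding to the DNA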
# T2 sequence (O40947 whole entry): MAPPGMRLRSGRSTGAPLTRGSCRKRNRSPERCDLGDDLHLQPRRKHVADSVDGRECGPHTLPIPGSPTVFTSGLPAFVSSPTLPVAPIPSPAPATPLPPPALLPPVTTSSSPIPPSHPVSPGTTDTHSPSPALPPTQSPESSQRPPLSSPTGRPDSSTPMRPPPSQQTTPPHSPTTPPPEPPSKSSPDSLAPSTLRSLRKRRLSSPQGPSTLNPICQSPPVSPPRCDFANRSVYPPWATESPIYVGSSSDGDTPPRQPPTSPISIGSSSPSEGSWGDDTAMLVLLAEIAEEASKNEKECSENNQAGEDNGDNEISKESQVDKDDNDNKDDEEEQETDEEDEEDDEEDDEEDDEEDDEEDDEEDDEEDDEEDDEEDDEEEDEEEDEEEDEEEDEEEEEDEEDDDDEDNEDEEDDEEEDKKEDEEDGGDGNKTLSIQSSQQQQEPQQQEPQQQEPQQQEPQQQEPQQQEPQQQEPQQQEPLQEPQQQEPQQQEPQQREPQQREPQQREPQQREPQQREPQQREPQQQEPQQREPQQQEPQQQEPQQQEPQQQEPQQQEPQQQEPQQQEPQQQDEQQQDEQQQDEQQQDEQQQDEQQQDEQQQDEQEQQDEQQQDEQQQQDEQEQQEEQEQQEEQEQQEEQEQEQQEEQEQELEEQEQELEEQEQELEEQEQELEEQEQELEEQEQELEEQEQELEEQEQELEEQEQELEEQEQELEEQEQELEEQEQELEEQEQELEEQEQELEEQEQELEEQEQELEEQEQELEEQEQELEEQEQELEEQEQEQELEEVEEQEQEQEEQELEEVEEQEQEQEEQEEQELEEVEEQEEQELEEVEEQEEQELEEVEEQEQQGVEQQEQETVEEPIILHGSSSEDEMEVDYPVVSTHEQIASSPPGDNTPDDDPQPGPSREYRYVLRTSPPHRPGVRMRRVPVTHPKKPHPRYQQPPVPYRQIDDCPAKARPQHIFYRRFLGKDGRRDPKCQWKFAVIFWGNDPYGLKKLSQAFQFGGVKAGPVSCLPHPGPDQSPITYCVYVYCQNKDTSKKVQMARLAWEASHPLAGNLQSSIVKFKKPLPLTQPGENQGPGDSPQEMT
# Nonstructural protein 1 = Nonstructural protein 1 (Influenza A virus, UniProt Q194T2); assay type: functional, Influenza A virus (A/California/07/2009(H1N1))
# [4] = target: T3, Histone-lysine N-methyltransferase NSD2 (Homo sapiens, UniProt O96028); assay type: biochemical
# T3 sequence (O96028 whole entry): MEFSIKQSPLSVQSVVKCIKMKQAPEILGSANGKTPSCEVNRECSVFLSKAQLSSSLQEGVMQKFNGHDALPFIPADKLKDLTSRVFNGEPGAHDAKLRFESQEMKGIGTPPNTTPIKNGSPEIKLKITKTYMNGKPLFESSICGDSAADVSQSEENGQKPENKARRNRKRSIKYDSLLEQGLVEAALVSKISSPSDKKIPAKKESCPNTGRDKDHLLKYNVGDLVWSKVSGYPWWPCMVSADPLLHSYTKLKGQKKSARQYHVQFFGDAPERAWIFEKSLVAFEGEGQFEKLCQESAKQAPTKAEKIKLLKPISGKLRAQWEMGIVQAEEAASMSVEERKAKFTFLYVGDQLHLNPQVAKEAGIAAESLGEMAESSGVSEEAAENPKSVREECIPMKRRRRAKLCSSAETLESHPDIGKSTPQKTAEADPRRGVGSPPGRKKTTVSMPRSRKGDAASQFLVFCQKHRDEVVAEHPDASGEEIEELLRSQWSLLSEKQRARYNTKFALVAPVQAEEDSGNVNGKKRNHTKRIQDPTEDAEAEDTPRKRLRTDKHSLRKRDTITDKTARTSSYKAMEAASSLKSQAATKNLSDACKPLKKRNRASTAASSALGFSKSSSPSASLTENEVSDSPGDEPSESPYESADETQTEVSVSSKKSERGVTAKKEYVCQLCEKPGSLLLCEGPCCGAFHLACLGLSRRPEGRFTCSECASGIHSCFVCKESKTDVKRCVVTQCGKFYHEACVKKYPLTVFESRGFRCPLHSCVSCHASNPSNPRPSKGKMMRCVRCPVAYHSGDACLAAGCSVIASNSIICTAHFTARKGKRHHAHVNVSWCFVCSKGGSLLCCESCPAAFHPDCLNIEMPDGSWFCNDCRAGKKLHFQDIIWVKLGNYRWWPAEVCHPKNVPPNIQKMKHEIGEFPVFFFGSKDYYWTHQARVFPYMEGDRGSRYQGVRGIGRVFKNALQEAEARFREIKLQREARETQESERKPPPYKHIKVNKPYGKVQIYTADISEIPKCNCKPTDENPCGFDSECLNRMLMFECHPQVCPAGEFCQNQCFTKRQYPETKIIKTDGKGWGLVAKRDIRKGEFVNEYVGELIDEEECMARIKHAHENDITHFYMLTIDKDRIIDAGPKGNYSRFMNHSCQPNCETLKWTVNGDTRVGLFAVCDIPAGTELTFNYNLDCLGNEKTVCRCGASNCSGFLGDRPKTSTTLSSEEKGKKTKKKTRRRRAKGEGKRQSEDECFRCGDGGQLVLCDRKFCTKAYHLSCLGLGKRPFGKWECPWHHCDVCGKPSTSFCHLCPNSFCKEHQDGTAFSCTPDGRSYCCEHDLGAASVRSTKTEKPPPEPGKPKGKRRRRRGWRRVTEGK
# Caspase-6 = target: T4, Caspase-6 (Homo sapiens, UniProt P55212); experiment: human caspase-6 inhibitors, dose response, biochemical, VEID-R110 fluorescence, cherry-pick (AID 720632)
# T4 sequence (P55212 whole entry): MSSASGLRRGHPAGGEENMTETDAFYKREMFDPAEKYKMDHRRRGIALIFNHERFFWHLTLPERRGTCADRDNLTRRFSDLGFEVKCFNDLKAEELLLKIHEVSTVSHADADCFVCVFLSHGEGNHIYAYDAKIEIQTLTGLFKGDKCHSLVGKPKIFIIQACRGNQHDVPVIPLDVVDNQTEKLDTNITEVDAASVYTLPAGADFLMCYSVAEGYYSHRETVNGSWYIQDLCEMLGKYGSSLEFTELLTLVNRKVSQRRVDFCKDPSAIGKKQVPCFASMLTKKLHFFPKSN
# [5] = target: Metabotropic glutamate receptor 3 (Rattus norvegicus, UniProt P31422); experiment: mGlu3 negative allosteric modulator potency, dose response, HEK/GIRK cells, thallium flux, rat (AID 651839); assay type: functional
# [6] = Mycobacterium tuberculosis BioA enzyme inhibitor Measured in Biochemical System Using Plate Reader - 2163-02_Inhibitor_Dose_DryPowder_Activity.
# [7] = control 3'UTR Renilla luciferase suppression, dose response, counter-screen for Shn3 inhibitor project, cell-based, Clone20-Shn3RL, cherry-picked (AID 624133); assay type: functional
# [8] = target: T5, Ubiquitin-conjugating enzyme E2 N (Homo sapiens, UniProt P61088); assay type: functional;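 further: Dose-response confirmation in a TR-FRET assay detecting UBC13-driven polyubiquitin chain formation, inhibition measured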
# T5 sequence (P61088 whole entry): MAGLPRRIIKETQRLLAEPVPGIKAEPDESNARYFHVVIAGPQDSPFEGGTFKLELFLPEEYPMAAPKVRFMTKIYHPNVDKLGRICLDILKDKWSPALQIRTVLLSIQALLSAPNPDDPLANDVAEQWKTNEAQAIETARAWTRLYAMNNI
# [9] = HEK293T cytotoxicity, dose response, cytotoxicity control for miR-122 modulator project, cell-based, inhibitor set, cherry-pick, set 2 (AID 720697); assay type: functional
# INS1 = experiment: beta cell apoptosis inhibitors, cytokine rescue, dose response, luminescence, retest (AID 449756); assay type: functional, cell-based; conditions: Rattus norvegicus;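 further: cell death triggered by IL-1 beta plus TNF-alpha plus IFN-gamma mixture; protective hits raise ATP signal compared with cytokine alone wells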
# [10] = HepG2 cell cytotoxicity, dose response, cytotoxicity control for Shn3 inhibitor project, CellTiter-Glo, cherry-picked (AID 624134); assay type: functional, cell-based
# [11] = growth suppression of PTEN-null colon cells, dose response, cell-based, HCT116 PTEN knockout (AID 1047); assay type: functional;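 further: HCT116 colon tumor cells with PTEN knocked out; cells exposed to compound for 60 hours before readout; potency for loss of cell viability measured by luminescence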
# [12] = inhibitors of control Renilla luciferase reporter, dose response, counter-screen for Shn3 3'UTR targeting project, Clone20-Shn3RL cells, dual-Glo, cherry-pick, set 2 (AID 720724); assay type: functional, cell-based; conditions: Dual-Go Shn3RL
# [13] = reduction of Shn3 3'UTR firefly luciferase signal, dose response, Schnurri-3 inhibitor project, cell-based, Clone20 osteoblasts, cherry-pick, set 2 (AID 720490); assay type: functional;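 further: actives lower the luminescence signal as inhibitors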
# [14] = HEK293T cytotoxicity, dose response, cytotoxicity control for miR-122 modulator project, cell-based, activator set, cherry-pick (AID 720690); assay type: functional;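 further: HEK293T human cells scored for general mammalian cytotoxicity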
# [15] = Shn3 3'UTR reporter inhibitors, dose response, cell-based, Clone20 osteoblasts, firefly luciferase, cherry-picked (AID 624132); assay type: functional;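 further: firefly luciferase luminescence from reporter carrying the Shn3 3'UTR in osteoblasts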
# [16] = growth suppression of beta-catenin-knockout colon cells, dose response, cell-based, HCT116, human colon tumor (AID 1045); assay type: functional;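 further: HCT116 colon tumor cells with beta catenin knocked out; cells exposed to compound for 60 hours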
# Sequence of Nonstructural protein 1 (Q194T2 whole entry): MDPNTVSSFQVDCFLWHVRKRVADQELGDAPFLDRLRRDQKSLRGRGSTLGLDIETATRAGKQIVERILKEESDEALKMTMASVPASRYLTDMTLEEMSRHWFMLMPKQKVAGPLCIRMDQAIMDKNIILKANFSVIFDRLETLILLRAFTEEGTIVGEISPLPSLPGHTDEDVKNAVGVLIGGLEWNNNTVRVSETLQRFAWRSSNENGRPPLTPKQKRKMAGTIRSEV
# Sequence of Metabotropic glutamate receptor 3 (P31422 whole entry): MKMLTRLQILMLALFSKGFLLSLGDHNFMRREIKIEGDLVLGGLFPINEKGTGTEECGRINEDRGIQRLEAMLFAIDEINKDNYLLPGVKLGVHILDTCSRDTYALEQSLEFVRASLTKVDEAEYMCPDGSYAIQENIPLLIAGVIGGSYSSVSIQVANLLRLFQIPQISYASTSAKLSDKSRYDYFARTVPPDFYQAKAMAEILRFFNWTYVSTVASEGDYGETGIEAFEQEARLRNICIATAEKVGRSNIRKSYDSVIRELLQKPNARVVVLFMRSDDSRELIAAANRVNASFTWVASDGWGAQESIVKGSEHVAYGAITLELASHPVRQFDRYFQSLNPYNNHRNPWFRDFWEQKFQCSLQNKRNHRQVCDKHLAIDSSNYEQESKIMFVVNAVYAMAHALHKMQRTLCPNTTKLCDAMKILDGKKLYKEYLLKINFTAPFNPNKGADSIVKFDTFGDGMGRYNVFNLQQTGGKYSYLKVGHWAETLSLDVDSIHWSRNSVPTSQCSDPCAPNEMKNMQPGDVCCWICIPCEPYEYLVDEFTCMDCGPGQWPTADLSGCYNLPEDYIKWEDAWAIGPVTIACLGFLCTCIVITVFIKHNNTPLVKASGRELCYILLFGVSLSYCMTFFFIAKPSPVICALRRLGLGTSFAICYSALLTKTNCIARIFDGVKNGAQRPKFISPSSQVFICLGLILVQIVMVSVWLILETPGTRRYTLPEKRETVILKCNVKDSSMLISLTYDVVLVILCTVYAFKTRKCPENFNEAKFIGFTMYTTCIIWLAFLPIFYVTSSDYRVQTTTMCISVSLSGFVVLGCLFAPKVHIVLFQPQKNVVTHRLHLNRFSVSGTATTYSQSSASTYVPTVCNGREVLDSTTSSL
smiles,measurement,setting,value
O=S(=O)(O)c1cc(O)c(N=Nc2ccc(O)cc2O)c2ccccc12,IC50,[1],20.5 µM (inactive)
same,AC50,HeLa,32.4 µM (active)
same,CC50,[2],100 µM (active)
same,IC50,[3],28.8 µM (active)
same,AC50,ORF 73,22.2 µM (active)
same,IC50,Nonstructural protein 1,4.32 µM (active)
same,AC50,[4],7.35 µM (active)
same,AC50,Caspase-6,2.16 µM (active)
O=C(c1ccc(C#Cc2ccc3c(c2)OCO3)cc1)N1CCCC(CO)C1 (stereo unspecified),IC50,[5],7.26 µM (active)
Cc1ccc(/C=C(\CC(=O)O)c2nc3ccccc3s2)cc1[N+](=O)[O-],AC50,[6],14.3 µM (active)
CCCCNc1cc(C)nc(NCc2ccccc2)n1,AC50,[7],3.36 µM (active)
same,IC50,[8],> 20 µM (inactive)
same,AC50,[9],7.51 µM (active)
same,AC50,INS1,2.49 µM (active)
same,AC50,[10],13.8 µM (active)
same,EC50,[11],4.04 µM (active)
same,AC50,[12],31.1 µM (active)
same,AC50,[13],1.19 µM (active)
same,AC50,[14],10.6 µM (active)
same,AC50,[15],0.719 µM (active)
same,EC50,[16],3.96 µM (active)
